A word on the melting point: it is the temperature, or range, at which the solid turns liquid.

For `CCCN(CCC)C(=O)c1cc(C(=O)N[C@@H](Cc2ccccc2)[C@H](O)CNCc2cccc(OC)c2)cc(-c2ccc(OC)cc2)c1.Cl`, the melting point lay within 205 to 209 °C.

`CCCN(CCC)C(=O)c1cc(C(=O)N[C@@H](Cc2cc(F)cc(F)c2)[C@H](O)CNCc2cccc(OC)c2)cc(-c2ccccc2)c1.Cl` showed a melting point of 230 to 233 °C.

On to `CCCN(CCC)C(=O)c1cc(C(=O)N[C@@H](Cc2ccccc2)[C@H](O)CNCc2cccc(OC)c2)cc(-c2ccccc2)c1.Cl`, for which the melting point is 214 to 219 °C.

For the molecule `CCCN(CCC)C(=O)c1cc(C(=O)N[C@@H](Cc2ccccc2)[C@H](O)CNCc2cccc(OC)c2)cc(-c2ccsc2)c1.Cl`, the melting point lay within 199 to 201 °C.
